In patent US9828396B2, “Alkyne compounds for treatment of complement mediated disorders” (Achillion Pharmaceuticals, Inc., priority 2014, dated 2017):

Target: Human factor D (Homo sapiens (Human), UniProt P00746)
Assay: Human Factor D Assay
Type: biochemical
Settings: Human factor D 80 nM, substrate Z-L-Lys-SBzl, assay of Example 12
Procedure, shortened: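 Serum-purified human factor D (80 nM final) was preincubated 5 min at room temperature with compound in 50 mM Tris, 1 M NaCl, pH 7.5. Z-L-Lys-SBzl and DTNB (100 μM each) were added and OD405 followed kinetically over 30 min; IC50 from non-linear regression of percent inhibition.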

Chain of Human factor D (P00746 26-253): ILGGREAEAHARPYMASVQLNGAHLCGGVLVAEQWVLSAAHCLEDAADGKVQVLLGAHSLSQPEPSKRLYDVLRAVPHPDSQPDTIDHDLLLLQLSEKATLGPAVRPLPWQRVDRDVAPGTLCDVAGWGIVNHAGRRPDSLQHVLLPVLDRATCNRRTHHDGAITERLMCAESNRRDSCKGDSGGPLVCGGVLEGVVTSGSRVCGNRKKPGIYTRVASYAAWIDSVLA

With NC(=O)c1nn(CC(=O)N2C[C@H](F)C[C@H]2C(=O)Nc2cccc(Br)n2)c2ccc(C#Cc3ncccn3)cc12 [Compound 39, 1-(2-((2S,4R)-2-(6-bromopyridin-2-ylcarbamoyl)-4-fluoropyrrolidin-1-yl)-2-oxoethyl)-5-(pyrimidin-2-ylethynyl)-1H-indazole-3-carboxamide] the IC50 was < 1 µM.

For CC(=O)c1cn(CC(=O)N2C[C@H](F)C[C@H]2C(=O)NCc2cccc(Cl)c2F)c2cc(C#C[Si](C)(C)C)ccc12 [Compound 3, (2S,4R)-1-(2-(3-acetyl-6-((trimethylsilyl)ethynyl)-1H-indol-1-yl)acetyl)-N-(3-chloro-2-fluorobenzyl)-4-fluoropyrrolidine-2-carboxamide], the IC50 was < 1 µM.

For CCS(=O)(=O)NC(=O)C#Cc1ccc2c(c1)c(C(C)=O)cn2CC(=O)N1C[C@H](F)C[C@H]1C(=O)NCc1cccc(Cl)c1F [Compound 8, (2S,4R)-1-(2-(3-acetyl-5-(3-(ethylsulfonamido)-3-oxoprop-1-ynyl)-1H-indol-1-yl)acetyl)-N-(3-chloro-2-fluorobenzyl)-4-fluoropyrrolidine-2-carboxamide], the IC50 was < 1 µM.

In the case of COc1ncc(C#Cc2ccc3c(c2)c(C(N)=O)nn3CC(=O)N2C[C@H](F)C[C@H]2C(=O)Nc2cccc(Br)n2)cn1 [Compound 92, 1-(2-((2S,4R)-2-(6-bromopyridin-2-ylcarbamoyl)-4-fluoropyrrolidin-1-yl)-2-oxoethyl)-5-((2-methoxypyrimidin-5-yl)ethynyl)-1H-indazole-3-carboxamide], the IC50 is reported as < 1 µM.

In the case of NC(=O)c1nn(CC(=O)N2C[C@H](F)C[C@H]2C(=O)NCc2cccc(Cl)c2F)c2ccc(C#Cc3cccc(F)n3)cc12 [Compound 37, 1-(2-((2S,4R)-2-(3-chloro-2-fluorobenzylcarbamoyl)-4-fluoropyrrolidin-1-yl)-2-oxoethyl)-5-((6-fluoropyridin-2-yl)ethynyl)-1H-indazole-3-carboxamide], the IC50 is reported as < 1 µM.

For NC(=O)c1nn(CC(=O)N2C[C@H](F)C[C@H]2C(=O)Nc2cccc(Cl)n2)c2ccc(C#Cc3ncc(F)cn3)cc12 [Compound 88, 1-(2-((2S,4R)-2-(6-chloropyridin-2-ylcarbamoyl)-4-fluoropyrrolidin-1-yl)-2-oxoethyl)-5-((5-fluoropyrimidin-2-yl)ethynyl)-1H-indazole-3-carboxamide], the IC50 was < 1 µM.

NC(=O)c1nn(CC(=O)N2C[C@H](F)C[C@H]2C(=O)Nc2cccc(Cl)n2)c2ccc(C#Cc3cnccn3)cc12 [Compound 82, 1-(2-((2S,4R)-2-(6-chloropyridin-2-ylcarbamoyl)-4-fluoropyrrolidin-1-yl)-2-oxoethyl)-5-(pyrazin-2-ylethynyl)-1H-indazole-3-carboxamide] was tested, and the IC50 was < 1 µM.

For C#Cc1cccc(NC(=O)[C@@H]2C[C@@H](F)CN2C(=O)Cn2nc(C(N)=O)c3ccncc32)c1F [Compound 15, 1-(2-((2S,4R)-2-(3-ethynyl-2-fluorophenylcarbamoyl)-4-fluoropyrrolidin-1-yl)-2-oxoethyl)-1H-pyrazolo[3,4-c]pyridine-3-carboxamide], the IC50 was < 1 µM.

NC(=O)c1nn(CC(=O)N2C[C@H](F)C[C@H]2C(=O)Nc2cccc(-c3ccccc3Cl)n2)c2ccc(C#Cc3ncccn3)cc12 [Compound 47, 1-(2-((2S,4R)-2-(6-(2-chlorophenyl)pyridin-2-ylcarbamoyl)-4-fluoropyrrolidin-1-yl)-2-oxoethyl)-5-(pyrimidin-2-ylethynyl)-1H-indazole-3-carboxamide] was tested, and the IC50 was < 1 µM.

CC(=O)c1cn(CC(=O)N2C[C@H](F)C[C@H]2C(=O)NCc2cccc(Cl)c2F)c2ccc(C#Cc3ccccc3)cc12 [Compound 14, (2S,4R)-1-(2-(3-acetyl-5-(phenylethynyl)-1H-indol-1-yl)acetyl)-N-(3-chloro-2-fluorobenzyl)-4-fluoropyrrolidine-2-carboxamide] was tested, and the IC50 was < 1 µM.

In the case of NC(=O)c1nn(CC(=O)N2C[C@H](F)C[C@H]2C(=O)Nc2cccc(Cl)n2)c2ccc(C#Cc3ccnnc3)cc12 [Compound 80, 1-(2-((2S,4R)-2-(6-chloropyridin-2-ylcarbamoyl)-4-fluoropyrrolidin-1-yl)-2-oxoethyl)-5-(pyridazin-4-ylethynyl)-1H-indazole-3-carboxamide], the IC50 is reported as < 1 µM.

In the case of CC(=O)c1cn(CC(=O)N2C[C@H](F)C[C@H]2C(=O)NCc2cccc(Cl)c2F)c2ccc(C#Cc3c[nH]nc3C#N)cc12 [Compound 24, (2S,4R)-1-(2-(3-acetyl-5-((3-cyano-1H-pyrazol-4-yl)ethynyl)-1H-indol-1-yl)acetyl)-N-(3-chloro-2-fluorobenzyl)-4-fluoropyrrolidine-2-carboxamide], the IC50 is reported as < 1 µM.

For NC(=O)c1nn(CC(=O)N2[C@@H]3CC(F)(F)[C@@H]3C[C@H]2C(=O)NCc2cccc(Cl)c2F)c2ccc(C#Cc3ncccn3)cc12 [Compound 51, 1-(2-((1R,3S,5R)-3-(3-chloro-2-fluorobenzylcarbamoyl)-6,6-difluoro-2-azabicyclo[3.2.0]heptan-2-yl)-2-oxoethyl)-5-(pyrimidin-2-ylethynyl)-1H-indazole-3-carboxamide], the IC50 was 1 to 10 µM.
